Laboratory results taken from patent US8012503B2, “Method of enhancing absorptions of transmucosal administration formulations” (The Chinese University of Hong Kong, priority 2004, dated 2011).
In brackets after ≈: the same amount, converted by molar mass.

Tests used:
[1] = Solubility of ionized and non-ionized forms and ionization constant; type: physicochemical
Text: (§1) [formula] in which Ka is the ionization constant (dissociation constant) of the active compound of the medicament in water, Si is the solubility of the ionized form of the compound, and Su is the solubility of the non-ionized form of the compound. Si and Su can be easily obtained by measuring the drug solubility at two extreme pH levels where the ionized or non-ionized species are dominating. For example, after determining the Si and Su of propranolol and sildenafil, their pHmax values are calculated to be 7.62 and 4.25, respectively.
(§2) It has been investigated that permeability across the sublingual mucosa is dependent on the concentration of non-ionized propranolol in the environment. When a formulation of propranolol provides saliva with pH of about 7.2 to about 7.8, propranolol should maintain relatively high solubility as well as high fraction of non-ionized form in the saliva of human oral cavity. Preferably, the formulation for sublingual delivery is at about pH 7.6. This can be confirmed by equation (I). For propranolol.

[2] = oral administration of propranolol tablets, cited from earlier work
[3] = pHmax calculated from Ka, Si and Su; type: physicochemical; conditions: calculated after determining Si and Su
Text: [formula] in which Ka is the ionization constant (dissociation constant) of the active compound in water, Si is the solubility of the ionized form of the compound, and Su is the solubility of the non-ionized form of the compound.
as §1, §2

Compound	solubility [1] [µg/mL]	onset of action [2]	plasma half-life [2] [h]	bioavailability ([2]; hepatic first-pass effect)	pHmax [3]
CC(C)NCC(O)COc1cccc2ccccc12 (stereo not drawn) [propranolol, 1-(isopropylamino)-3-(1-naphthyloxy)-2-propanol]	539 (≈ 2080 µM)	over 1 hr	2.8 to 4.4	10-30%	7.62
CCCc1nn(C)c2c(=O)[nH]c(-c3cc(S(=O)(=O)N4CCN(C)CC4)ccc3OCC)nc12 [sildenafil]	–	–	–	–	4.25
